From PMC4492822 (EMBO Molecular Medicine, 2015) come the findings set out here.

Series [1] can be described thus: Toxicology in SCID mice (histopathology, blood values). It is filed as in vivo. As to the method: Figure 5 Toxicity studies of RK-33 in mice • Following injection of 20 mg/kg of RK-33, twice a week for 7 weeks, extensive histopathological examination was carried out following necropsy. Identical patterns were observed both in the control and in the treated mice (n = 2). Samples were stained with H&E. Scale bar is 50 μm. • Pharmacokinetics of RK-33 in SCID mice at various time intervals. Results are mean ± SD from 5 mice. LC-MS/MS method was used to determine concentration of RK-33 in mouse plasma and tissue. • Liquid chromatography–mass spectrometry (LC-MS/MS) analysis was performed to determine different metabolites of RK-33. • RK-33 and metabolites characterized by LC-MS/MS in human liver microsomes using the scan mode function of the LC-MS/MS. • HAPI cells were treated with RK-33 (10 μM), HA14-1 (25 μM), or DMSO vehicle, followed by oligomycin (oligo, 0.5 μg/ml), FCCP (3 μM), and antimycin A (AA, 1 μM) while oxygen consumption rate (OCR) was measured. Pyruvate (10 mM) was added in combination with FCCP to ensure that substrate supply was not rate-limiting for maximal OCR. Data are mean ± SD from 2 to 3 wells and representative of independent experiments performed with two different HAPI passages. OCR is baseline-normalized to the point prior to drug or vehicle addition. • HAPI microglial cells were incubated for 1 h in glucose-free XF24 assay medium that was supplemented with 2-deoxyglucose (50 mM) and pyruvate (10 mM). RK-33 (10 μM), oligomycin (0.5 μg/ml), or vehicle control was additionally present as indicated. Results are mean ± SD from 12 replicates pooled from experiments using two consecutive passages. Significance was assessed by two-sided, unpaired t-test. TEXT PRINTED IN THE PICTURE: (B) RK-33: t½e (hours): 7.31 ± 1.16 (Organ: plasma); t½e (hours): 6.70 ± 1.17 (Organ: kidney); t½e (hours): 10.01 ± 1.24 (Organ: liver); t½e (hours): 8.92 ± 1.45 (Organ: spleen); t½e (hours): 7.48 ± 1.18 (Organ: breast); t½e (hours): 7.25 ± 1.25 (Organ: lung); t½e (hours): 6.72 ± 1.23 (Organ: brain); t½e (hours): 6.25 ± 1.19 (Organ: muscle) | (C) RK-33: Mouse Microsomes + NADPH: 100% (Inc. Time: 0); Mouse Microsomes - NADPH: 100% (Inc. Time: 0); Human Microsomes + NADPH: 100% (Inc. Time: 0); Human Microsomes - NADPH: 100% (Inc. Time: 0); Mouse Microsomes + NADPH: 11% (Inc. Time: 30); Mouse Microsomes - NADPH: 80% (Inc. Time: 30); Human Microsomes + NADPH: 49% (Inc. Time: 30); Human Microsomes - NADPH: 85% (Inc. Time: 30); Mouse Microsomes + NADPH: 4% (Inc. Time: 60); Mouse Microsomes - NADPH: 69% (Inc. Time: 60); Human Microsomes + NADPH: 35% (Inc. Time: 60); Human Microsomes - NADPH: 73% (Inc. Time: 60) DOUBTS OF THE COPYIST ABOUT THIS PICTURE: Panel C prints no substance label of its own; RK-33 is taken from the other panels of the same picture / Panel C prints no unit for Inc. Time / Panel B, column head: read as t½e (hours), small print; the sign after t may be 1/2 e / Panel D (retention times and [M+H]+ of RK-33 and peaks M1-M3) was left out as LC-MS data

Series [2] deals with TCF4 activity in H1299 cells. Description: TCF reporter assay (TOP/FOP-FLASH). The series is classed as cell-based. Particulars: 0, 1, 2, and 3 μM; wild-type and β-catenin-overexpressing cells. As to the method: Transcriptional activity of TCF4 was assayed using the dual luciferase assay (Promega, Madison, WI, USA) according to the manufacturer's instructions. Briefly, 1.5 × 10^4 A549 or H1299 cells were transfected with 500 ng of TOP-FLASH and control FOP-FLASH constructs along with 50 ng of phRL Renilla constructs as transfection controls as well as with 500 ng β-catenin constructs when indicated. Cells were cultured for 24 h and then lysed in passive lysis buffer. Luminescence was detected using a luminometer (Berthold Sirius, Oak Ridge, TN, USA). Relative TCF4 promoter activity was calculated by dividing firefly luminescence by Renilla luminescence, and then normalized TOP-FLASH was divided by normalized FOP-FLASH, which was finally normalized to vector or DMSO control cells. All experiments were repeated three times, and differences were assessed by the paired t-test.
(In a reporter assay the amount or activity of a reporter protein is the signal.)

Series [3] deals with H1299-DR-GFP cells. The series is described as follows: Homologous recombination reporter assay. It is filed as cell-based. As to the method: NHEJ was assessed by the functional reporter system H1299-EJ, provided by E Dikomey. […] When these sites are incised by I-SceI, the artificial start codon is removed creating a DSB. Repair of this DSB by NHEJ restores GFP expression, so that cells capable for NHEJ can be identified by their GFP fluorescence intensity (Kriegs et al, [2010]). H1299.EJ cells were plated in a 6-well plate (1 × 10^5 cell/well) and treated with 4–6 μM RK-33. The following day, cells were transfected (in duplicates) with 1–2 μg of pSceI or pEGFP construct using TransIT-LT1 (Mirus, Madison, WI, USA) in serum-free media (Opti-MEM, Invitrogen, Carlsbad, CA, USA). Media was replaced after 4–6 h with complete media. Subsequently, cells were harvested by trypsinization, washed in PBS, and resuspended in 0.5 ml PBS. NHEJ activity was measured on a FACScan I instrument and analyzed on FlowJo software. Recombination frequency was calculated as ((% pSceI − % negative control) / % pEGFP). H1299-DR-GFP cells, provided by RG Bristow, were used to measure homologous recombination similarly as described above (Chan et al, [2008]).

“diimidazo[4,5-d:4′,5′-f]-[1,3]diazepine [RK-33]”: the “toxicity at the dose used” value in series [1] (SCID mice) is reported as “non-toxic”. In addition, in series [1] (mouse, in vivo), the ALP turned out to be 69 ± 5 U/l, the ALT is 72 ± 34 U/l, the AST amounted to 224 ± 152 U/l and the Albumin is 3.05 ± 0.05 g/dL. In series [1] (mouse, in vivo), the Amylase was 905 ± 42 U/l, the BUN stood at 22 ± 2.0 mg/dL, the Calcium amounted to 9.1 ± 0.2 mg/dL and the Cholesterol stood at 120 ± 1 mg/dL. In series [1] (mouse, in vivo), the Creatinine was determined as 0.35 ± 0.05 mg/dL, the Glucose stood at 166 ± 4 mg/dL, the Hb amounted to 14.7 ± 0.6 g/dL and the MCV came out at 55.1 ± 1.3 fL. In addition, in series [1] (mouse, in vivo), the RBC is on record as 10.01 ± 0.77 M/μl, the Thrombocytes came to 746 ± 185 K/μl, the Triglycerides amounted to 215 ± 14 mg/dL and the WBC is 5.83 ± 2.61 K/μl. Besides, the TCF activity result in series [2] is “reduced TCF activity significantly”. In addition, in series [3], the HR activity result was “no changes in HR activity”.
